According to patent US4962109A, “Insecticidally and acaricidally active pyrimidine esters and intermediates therefor” (Imperial Chemical Industries PLC, priority 1985, dated 1990):
Read-outs that look alike come from different tables or passages of the source.

Experiments:
Assay type in all cases: in vivo
[1] = test system: Diabrotica balteata (rootworm larvae); experiment: Residual test on rootworm larvae (DB), Filter paper/maize seed, mortality; details: 48 h, 500 ppm, residual, read-out: DB grading of mortality
Method in brief: (§1)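 Compound dissolved in acetone, diluted with water containing 0.01% by weight wetting agent to 500, 250 or 100 ppm. Pests held on host plant or foodstuff; pests and/or medium treated. Mortality scored one to three days later as grade A (80-100%), B (50-79%) or C (<50%) mortality or knockdown.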

[2] = test system: Tetranychus urticae (spider mites - ova); experiment: Contact test on spider mites - ova (TUe), French bean leaf, mortality; details: 144 h, 500 ppm, contact, 6 days, read-out: TUe grading of mortality
Method in brief: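 Graded read-out: A 80-100%, B 50-79%, C below 50% mortality or knockdown, assessed usually 1-3 days post-treatment. Liquid preparations at 500, 250 or 100 ppm by weight, from acetone solution diluted in water with 0.01% wetting agent, applied to pests and/or their host plant or food medium.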

[3] = test system: Heliothis virescens (tobacco budworm - larvae); experiment: Residual test on tobacco budworm larvae (HV), Cotton leaf, mortality; details: 48 h, read-out: HV grading of mortality
Method in brief: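 Product in acetone diluted with water containing 0.01% Lissapol NX, at 500, 250 or 100 ppm; pests and/or host medium (here cotton leaf) treated. Mortality scored one to three days later, graded A (80-100%), B (50-79%), C (<50%).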

[4] = test system: Tetranychus urticae (spider mites - adult); experiment: Contact test on spider mites - adult (TUa), French bean leaf, mortality; details: 72 h, 500 ppm, contact, 3 days, read-out: TUa grading of mortality
Method in brief: as §1

[5] = test system: Musca domestica (houseflies - adults); experiment: Knockdown test on houseflies - adults (MD/KD), Cotton wool/sugar; details: 500 ppm, 4 hours, read-out: MD/KD grading of knockdown
Method in brief: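 Adult houseflies exposed to the compound at 500, 250 or 100 ppm in acetone/water with 0.01% wetting agent, on a cotton wool/sugar medium. Knockdown and mortality assessed, graded A (80-100%), B (50-79%) or C (<50%).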

[6] = test system: Blattella germanica (cockroach nymphs); experiment: Residual test on cockroach nymphs (BG/R), Plastic pot, mortality; details: 72 h, 3 days, read-out: BG/R grading of mortality
Protocol: The activity of the Product was determined using a variety of insect pests. The Product was used in the form of liquid preparations containing 500, 250 or 100 parts per million (ppm) by weight of the Product. The preparations were made by dissolving the Product in acetone and diluting the solutions with water containing 0.01% by weight of a wetting agent sold under the trade name "LISSAPOL" NX until the liquid preparations contained the required concentration of the Product. "Lissapol" is a Registered Trade Mark.
The test procedure adopted with regard to each pest was basically the same and comprised supporting a number of the pests on a medium which was usually a host plant or a foodstuff on which the pests feed, and treating either or both the pests and the medium with the preparations. The mortality of the pests was then assessed at periods usually varying from one to three days after the treatment.
The results of the tests are given in Table III for each of the Products, at the rate in parts per million given in the second column as a grading of mortality designated as A, B or C wherein A indicates 80-100% mortality or knockdown, B indicates 50-79% mortality or knockdown and C indicates less than 50% mortality or knockdown.
BG/R Blattella germanica

[7] = test system: Myzus persicae (aphids); experiment: Contact test on aphids (MP), Chinese Cabbage leaf, mortality; details: 72 h, 500 ppm, contact, 3 days, read-out: MP grading of mortality
Method in brief: as §1

[8] = test system: Spodoptera exigua (lesser army worm - larvae); experiment: Residual test on lesser army worm larvae (SP), Cotton leaf, mortality; details: 48 h, 500 ppm, residual, read-out: SP grading of mortality
Method in brief: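 Product dissolved in acetone and diluted in water with 0.01% wetting agent to 500, 250 or 100 ppm; larvae and/or cotton leaf host treated. Mortality or knockdown scored one to three days later and graded A (80-100%), B (50-79%) or C (<50%).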

[9] = test system: Nephotettix cincticeps (green leaf hopper - nymphs); experiment: Contact test on green leaf hopper nymphs (NC), Rice plant, mortality; details: 500 ppm, contact, read-out: NC grading of mortality
Method in brief: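 Product dissolved in acetone, diluted in water with 0.01% wetting agent to 500, 250 or 100 ppm; nymphs and/or host rice plants treated. Mortality or knockdown assessed 1–3 days later, graded A (80-100%), B (50-79%), C (<50%).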

[10] = test system: Musca domestica (houseflies - adults); experiment: Contact test on houseflies - adults (MD), Cotton wool/sugar, mortality; details: 500 ppm, contact, read-out: MD grading of mortality
Method in brief: as §1

[11] = 72 h, * test duration of 3 days
[12] = 24 h, ** test duration of 1 day

SMILES	mortality at 500 ppm ([1]; * test duration of 3 days) [%]	mortality at 500 ppm [2] [%]	mortality at 500 ppm [3] [%]	mortality at 500 ppm [4] [%]	pest or weed control at 500 ppm [5] [%]	mortality at 500 ppm [6] [%]	mortality at 500 ppm [7] [%]	mortality at 500 ppm ([8]; * test duration of 3 days) [%]	mortality at 500 ppm [9, 11] [%]	mortality at 500 ppm [10, 12] [%]	mortality at 500 ppm ([1]; 2 days) [%]	mortality at 500 ppm ([8]; 2 days) [%]	mortality at 500 ppm ([9]; 48 h, 2 days) [%]	mortality at 500 ppm ([10]; 72 h, 3 days) [%]
Cc1c(F)c(F)c(COC(=O)C(c2cnc(C(C)(C)C)nc2)C(C)(C)C)c(F)c1F (racemic) [Compound 4, 2,3,5,6-tetrafluoro-4-methylbenzyl (RS)-2-[2-(1,1-dimethylethyl)pyrimidin-5-yl]-3,3-dimethylbutanoate]	80 to 100	< 50	80 to 100	80 to 100	80 to 100	50 to 79	80 to 100	80 to 100	80 to 100	80 to 100	–	–	–	–
C#CCc1c(F)c(F)c(COC(=O)C(c2cnc(C(C)(C)C)nc2)C(C)(C)C)c(F)c1F (racemic) [Compound 12, 2,3,5,6-tetrafluoro-4-(prop-2-yn-1-yl)benzyl (RS)-2-[2-(1,1-dimethylethyl)pyrimidin-5-yl]-3,3-dimethylbutanoate]	80 to 100	80 to 100	80 to 100	80 to 100	80 to 100	80 to 100	80 to 100	80 to 100	80 to 100	80 to 100	–	–	–	–
COCc1c(F)c(F)c(COC(=O)C(c2cnc(C(C)(C)C)nc2)C(C)(C)C)c(F)c1F (racemic) [Compound 15, 2,3,5,6-tetrafluoro-4-(methoxymethyl)benzyl (RS)-2-[2-(1,1-dimethylethyl)pyrimidin-5-yl]-3,3-dimethylbutanoate]	80 to 100	80 to 100	80 to 100	80 to 100	80 to 100	50 to 79	80 to 100	80 to 100	80 to 100	80 to 100	–	–	–	–
COCc1c(F)c(F)c(COC(=O)C(c2cnc(C(C)(C)C)nc2)C(C)(C)C)c(OC)c1F (racemic) [Compound 16, 2,3,5-trifluoro-6-methoxy-4-(methoxymethyl)benzyl (RS)-2-[2-(1,1-dimethylethyl)pyrimidin-5-yl]-3,3-dimethylbutanoate]	< 50	80 to 100	80 to 100	< 50	80 to 100	50 to 79	80 to 100	80 to 100	–	80 to 100	–	–	–	–
CC(C)(C)c1ncc(C(C(=O)OCc2c(F)c(F)c(Cc3ccccc3)c(F)c2F)C(C)(C)C)cn1 (racemic) [Compound 17, 4-benzyl-2,3,5,6-tetrafluorobenzyl (RS)-2-[2-(1,1-dimethylethyl)pyrimidin-5-yl]-3,3-dimethylbutanoate]	–	< 50	< 50	50 to 79	< 50	< 50	< 50	–	–	–	80 to 100	< 50	< 50	< 50
C#CCc1c(F)c(F)c(COC(=O)C(c2cnc(C(F)(F)F)nc2)C(C)C)c(F)c1F (racemic) [Compound 87, 2,3,5,6-tetrafluoro-4-(prop-2-yn-1-yl)benzyl (RS)-2-(2-trifluoromethylpyrimidin-5-yl)-3-methylbutanoate]	80 to 100	80 to 100	50 to 79	80 to 100	80 to 100	80 to 100	80 to 100	80 to 100	50 to 79	80 to 100	–	–	–	–
